Data taken from US20200247808A1, “Heterocyclic Tec-Family Kinase Inhibitors” (GB005, Inc., priority 2015, published 2020).

Experiments:
[1] = biological target: EGFR (Homo sapiens, UniProt P00533); assay: EGFR kinase inhibition, KinaseProfiler radiometric protein kinase assay (Eurofins); format: biochemical; set-up: purchased Eurofins Pharma Discovery Services UK Limited (contract assay, KinaseProfiler); conditions: 40 min room temperature
Procedure: (§1) In vitro potency of selected compound was defined against human BTK, EGFR, and ErbB2 kinases using Kinase Profiler radiometric protein kinase assays performed at Eurofins Pharma Discovery Services UK Limited.
Each kinase is diluted in buffer and all compounds were prepared to 50x final assay concentration in 100% DMSO. This working stock of the compound was added to the assay well as the first component in the reaction, followed by the remaining components as detailed in the assay protocol listed above. The reaction was initiated by the addition of the MgATP mix. […] (specific activity approx. 500 cpm/pmol, concentration as required) and variable test article concentrations. […] The reaction was stopped by the addition of 3% phosphoric acid solution. 10 μL of the reaction is then spotted onto a P30 filtermat and washed three times for 5 minutes in 75 mM phosphoric acid and once in methanol prior to drying and scintillation counting. In addition positive control wells contain all components of the reaction, except the compound of interest; however, DMSO (at a final concentration of 2%) were included in these wells to control for solvent effects as well as blank wells contain all components of the reaction, with a reference inhibitor replacing the compound of interest. This abolishes kinase activity and establishes the base-line (0% kinase activity remaining). […]

[2] = biological target: T1, human BTK (Homo sapiens, UniProt Q06187); assay: BTK kinase inhibition, KinaseProfiler radiometric protein kinase assay (Eurofins); format: biochemical
T1 construct: purchased Eurofins Pharma Discovery Services UK Limited (contract assay, KinaseProfiler)
Procedure: as §1
Each kinase is diluted in buffer and all compounds were prepared to 50x final assay concentration in 100% DMSO. This working stock of the compound was added to the assay well as the first component in the reaction, followed by the remaining components as detailed in the assay protocol listed above. The reaction was initiated by the addition of the MgATP mix. […] (specific activity approx. 500 cpm/pmol, concentration as required) and variable test article concentrations. […] The reaction was stopped by the addition of 3% phosphoric acid solution. 10 μL of the reaction is then spotted onto a P30 filtermat and washed three times for 5 minutes in 75 mM phosphoric acid and once in methanol prior to drying and scintillation counting. In addition positive control wells contain all components of the reaction, except the compound of interest; however, DMSO (at a final concentration of 2%) were included in these wells to control for solvent effects as well as blank wells contain all components of the reaction, with a reference inhibitor replacing the compound of interest. This abolishes kinase activity and establishes the base-line (0% kinase activity remaining). The potency of each compound was reported by estimating the EC50.

Chain of EGFR (P00533 25-1210): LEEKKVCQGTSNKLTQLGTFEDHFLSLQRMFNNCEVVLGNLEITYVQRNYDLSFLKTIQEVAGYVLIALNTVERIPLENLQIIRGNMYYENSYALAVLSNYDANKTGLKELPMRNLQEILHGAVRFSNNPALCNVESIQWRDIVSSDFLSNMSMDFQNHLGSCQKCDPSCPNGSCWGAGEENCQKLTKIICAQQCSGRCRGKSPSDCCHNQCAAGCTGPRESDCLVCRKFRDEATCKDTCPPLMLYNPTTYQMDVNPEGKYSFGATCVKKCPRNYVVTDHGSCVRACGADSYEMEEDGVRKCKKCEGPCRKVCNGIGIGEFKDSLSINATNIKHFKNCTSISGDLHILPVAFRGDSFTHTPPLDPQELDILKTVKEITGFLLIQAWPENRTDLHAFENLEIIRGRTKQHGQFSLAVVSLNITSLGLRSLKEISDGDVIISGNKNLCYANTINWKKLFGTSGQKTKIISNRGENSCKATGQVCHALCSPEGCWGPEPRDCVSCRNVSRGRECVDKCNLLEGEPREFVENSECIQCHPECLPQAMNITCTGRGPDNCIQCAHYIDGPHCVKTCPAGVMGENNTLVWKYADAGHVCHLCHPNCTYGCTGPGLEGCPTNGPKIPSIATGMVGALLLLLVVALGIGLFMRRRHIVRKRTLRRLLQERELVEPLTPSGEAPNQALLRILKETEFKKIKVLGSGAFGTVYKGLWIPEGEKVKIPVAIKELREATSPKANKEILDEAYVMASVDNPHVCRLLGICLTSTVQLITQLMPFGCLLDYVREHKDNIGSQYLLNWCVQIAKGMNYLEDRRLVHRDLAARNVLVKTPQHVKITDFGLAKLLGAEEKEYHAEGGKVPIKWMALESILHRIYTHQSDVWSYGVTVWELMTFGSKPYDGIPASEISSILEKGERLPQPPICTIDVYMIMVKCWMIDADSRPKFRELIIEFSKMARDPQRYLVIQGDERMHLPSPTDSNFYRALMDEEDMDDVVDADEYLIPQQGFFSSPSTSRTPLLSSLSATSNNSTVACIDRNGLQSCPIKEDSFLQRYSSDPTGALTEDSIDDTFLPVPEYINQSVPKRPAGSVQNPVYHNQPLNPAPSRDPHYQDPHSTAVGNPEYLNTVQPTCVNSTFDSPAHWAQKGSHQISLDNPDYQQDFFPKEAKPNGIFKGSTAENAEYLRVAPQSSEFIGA
T1 sequence (Q06187 whole entry): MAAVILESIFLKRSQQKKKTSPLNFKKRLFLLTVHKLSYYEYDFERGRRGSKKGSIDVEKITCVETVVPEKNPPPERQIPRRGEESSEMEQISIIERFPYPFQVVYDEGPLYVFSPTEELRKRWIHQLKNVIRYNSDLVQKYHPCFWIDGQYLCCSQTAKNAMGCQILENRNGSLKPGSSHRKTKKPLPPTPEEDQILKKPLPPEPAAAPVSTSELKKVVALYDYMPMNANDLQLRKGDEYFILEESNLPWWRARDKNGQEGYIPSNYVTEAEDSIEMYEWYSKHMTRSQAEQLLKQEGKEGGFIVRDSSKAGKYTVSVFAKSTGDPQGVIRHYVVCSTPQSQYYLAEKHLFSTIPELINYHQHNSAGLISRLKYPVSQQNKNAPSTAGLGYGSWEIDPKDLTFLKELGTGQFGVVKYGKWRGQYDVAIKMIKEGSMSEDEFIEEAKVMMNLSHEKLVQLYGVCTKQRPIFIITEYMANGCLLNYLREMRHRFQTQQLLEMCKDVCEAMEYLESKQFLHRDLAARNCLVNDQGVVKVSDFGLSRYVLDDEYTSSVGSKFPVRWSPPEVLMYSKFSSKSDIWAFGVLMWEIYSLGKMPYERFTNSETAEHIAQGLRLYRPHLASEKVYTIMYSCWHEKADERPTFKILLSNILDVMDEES

Row | IC50 [1] [nM] | IC50 [2] [nM] | SMILES
1 | > 1000 | 3 | CC#CC(=O)N[C@H]1C[C@@H](n2nc(-c3ccc(Oc4ccccc4)cc3)c3c(N)ncnc32)C1 [Compound 1]
2 | > 1000 | 3 | C=CC(=O)N[C@H]1C[C@@H](n2nc(-c3ccc(Oc4ccccc4)cc3)c3c(N)ncnc32)C1 [Compound 2]
